Data as given in PubChem BioAssay (NCI).
Where “and” joins values, the source holds several entries; their conditions need not be identical. Identical values can stand only once.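 Five concentrations, 48 hours, 96-well plates. At the GI50, growth is halved. TGI denotes the concentration required for complete inhibition of growth.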 Numbered stars: 1 amine (or outer) side, 2 acyl side, 3 side chain; on linkers, the order of the positions; unused ones are H or OH. Bridge positions count the residues as written; N and C are the ends. Square brackets hold non-standard residues; d marks the D form. Peptide text beside a SMILES is read from it. I, II: the chains in the order shown. Actinocin(1to9) = Cc1c2oc3c(C)ccc(C(=O)[*:2])c3nc-2c(C(=O)[*:1])c(N)c1=O; NMeY = CN[CH](Cc1ccc(O)cc1)C(=O)O; Sar = CNCC(=O)O

Key:
Assay in all cases: growth of human tumour cells (NCI), 48 h
HCT-15 colon = test system: HCT-15 colon
NCI-H460 lung = test system: NCI-H460 lung
OVCAR-4 ovarian = test system: OVCAR-4 ovarian
OVCAR-5 ovarian = test system: OVCAR-5 ovarian
PC-3 prostate = test system: PC-3 prostate
SK-OV-3 ovarian = test system: SK-OV-3 ovarian
T-47D breast = test system: T-47D breast
UACC-62 melanoma = test system: UACC-62 melanoma

| Compound | TGI (HCT-15 colon) | TGI (NCI-H460 lung) | TGI (OVCAR-4 ovarian) | TGI (OVCAR-5 ovarian) | TGI (PC-3 prostate) | TGI (SK-OV-3 ovarian) | TGI (T-47D breast) | TGI (UACC-62 melanoma) | GI50 (HCT-15 colon) | GI50 (NCI-H460 lung) | GI50 (OVCAR-4 ovarian) | GI50 (PC-3 prostate) | GI50 (SK-OV-3 ovarian) | GI50 (T-47D breast) | GI50 (UACC-62 melanoma) | GI50 (OVCAR-5 ovarian) |
| --- | --- | --- | --- | --- | --- | --- | --- | --- | --- | --- | --- | --- | --- | --- | --- | --- |
| COC(C)C(O)(C(=O)OCC1=CCN2CCC(O)C12)C(C)(C)O (stereo not drawn) | > 100 µM | > 100 µM | > 100 µM | > 100 µM | > 100 µM | > 100 µM | > 100 µM | > 100 µM |  |  |  |  |  |  |  |  |
| CC(C)(C)OC(=O)N[C@@H](Cc1ccccc1)C(=O)N(Cc1ccccc1)C1(C(=O)NCc2ccccc2)CCN(Cc2ccccc2)CC1 | > 100 µM | 87.6 µM | > 100 µM |  | > 100 µM | > 100 µM | > 100 µM | 7.88 µM | 3.16 µM | 3 µM | 3.23 µM | 2.46 µM | 3 µM | 2.89 µM | 2.54 µM |  |
| O=C(O)c1ccc(SSc2ccc(C(=O)O)cn2)nc1 | > 100 µM | > 100 µM | > 100 µM | > 100 µM | > 100 µM | > 100 µM | > 100 µM | > 100 µM |  |  |  |  |  |  |  |  |
| O=C1N=C(Nc2nc(-c3csc(NC4=NC(=O)/C(=C\c5ccccc5)S4)n3)cs2)S/C1=C/c1ccccc1 | > 50 µM | > 50 µM |  | > 50 µM | 42.7 µM |  | > 50 µM | 18.5 µM | 11.2 µM | 12.8 µM |  | 8.98 µM |  | > 50 µM | 6.4 µM | 34 µM |
| O=C1NC(c2ccccc2)C2(C(=O)O)CN(C3CC3)c3cc(N4CCNCC4)c(F)cc3C2N1 (stereo not drawn) | > 100 µM | > 100 µM | > 100 µM | > 100 µM | > 100 µM | > 100 µM | > 100 µM | > 100 µM | > 100 µM | > 100 µM | > 100 µM | > 100 µM | > 100 µM | > 100 µM | > 100 µM | > 100 µM |
| C[C@@H]1CC[C@@]2(NC1)O[C@H]1C[C@H]3[C@@H]4CC[C@H]5C[C@@H](O)CC[C@]5(C)[C@H]4CC[C@]3(C)[C@H]1[C@@H]2C | > 100 µM | > 100 µM | 71.7 µM | > 100 µM | > 100 µM | > 100 µM | > 100 µM | > 100 µM |  |  |  |  |  |  |  |  |
| COc1ccc2[nH]c(C(=O)OCc3ccc4c(Cl)cc(Cl)c(O)c4n3)cc2c1 | 2.44 µM | 3.45 µM | 2.92 µM | 2.9 µM | 2.57 µM | 17.7 µM |  | 2.61 µM | 0.698 µM | 1.75 µM | 1.49 µM | 0.99 µM | 4.06 µM |  | 1.33 µM | 1.49 µM |
| CC(C)(C)OC(=O)Nc1ccc2c(c1)C(NC(=O)Nc1cccc(C#N)c1)CC(C)(C)O2 (stereo not drawn) | > 51.3 µM | > 100 µM | > 100 µM | > 100 µM | > 35.3 µM | > 100 µM | 33 µM | 17 µM | 1.89 µM | 3 µM | 1.18 µM | 0.785 µM | 8.68 µM | 2.52 µM | 0.834 µM | 28 µM |
| COC(=O)N[C@H]1CCc2c(Cl)c(OC)c(OC)c(OC)c2-c2ccc(SC)c(=O)cc21 | > 43.9 µM | 1.05 µM | > 100 µM | > 94.8 µM | > 70.3 µM | > 100 µM |  | 20.1 µM | < 0.01 µM | < 0.01 µM | 0.0813 µM | < 0.01 µM | < 0.01 µM |  | < 0.01 µM | < 0.01 µM |
| O=C(Nc1cccc(C(F)(F)F)c1)Oc1ccc(Cl)c2cccnc12 | 9.19 µM | 5.08 µM | 14.8 µM | 18 µM | 14.2 µM | 29.3 µM | > 28.2 µM | 3.57 µM | 0.584 µM | 1.01 µM | 0.831 µM | 0.607 µM | 6.64 µM | 1.8 µM | 1.15 µM | 3.6 µM |
| NC(Cc1ccccc1)c1nccs1 (stereo not drawn) | > 100 µM |  | > 100 µM | > 100 µM | > 100 µM | > 100 µM |  | > 100 µM |  |  |  |  |  |  |  |  |
| COc1ccc(CC2C(=O)OC(C)C(NC(=O)c3c4nc5c(C(=O)NC6C(=O)NC(C(C)C)C(=O)N7CCCC7C(=O)N(C)CC(=O)N(C)C(Cc7ccc(OC)cc7)C(=O)OC6C)ccc(C)c5oc-4c(C)c(=O)c3N)C(=O)NC(C(C)C)C(=O)N3CCCC3C(=O)N(C)CC(=O)N2C)cc1 (stereo not drawn) (I: TVP[Sar][NMeY](Me) / II: TVP[Sar][NMeY](Me); ester I:1-I:C, II:1-II:C; linker I:N-II:N via Actinocin(1to9); configuration not given here) | > 1 µM | < 0.01 µM | < 0.01 µM | > 0.651 µM |  |  |  |  |  | < 0.01 µM |  |  | < 0.01 µM and 0.0582 µM |  |  | < 0.01 µM and 0.0841 µM |
| O=c1[nH]c(=O)n(C2CC(O)C(CO)O2)cc1C(F)(F)F (stereo not drawn) | > 100 µM | > 100 µM | > 100 µM | > 100 µM | > 100 µM | > 100 µM | > 100 µM | > 91.8 µM | 46 µM | 0.337 µM | > 100 µM | > 100 µM | 10.1 µM | 3.34 µM | 2.59 µM | > 100 µM |
| COc1cc2c3c(n(CCCNCCCN)c(=O)c2cc1OC)-c1cc2c(cc1C3=O)OCO2 | > 100 µM | 18 µM | 16.7 µM | 12.6 µM | 14.6 µM | 92.9 µM | 14.7 µM | 15.5 µM | 25 µM | 4.07 µM | 2.83 µM | 3.53 µM | 11.2 µM | 2.8 µM | 3.41 µM | 2.94 µM |
| CC[C@H](C)[C@H](NC(=O)c1cccn1C)C(=O)N(C)[C@H](C[C@@H](OC(C)=O)c1nc(C(=O)N[C@@H](Cc2ccccc2)C[C@H](C)C(=O)OC)cs1)C(C)C | > 33.3 µM | > 14.4 µM | > 33.3 µM | > 33.3 µM | > 33.3 µM | > 33.3 µM | > 33.3 µM | > 26 µM | 0.337 µM | 0.123 µM | 0.68 µM | 0.141 µM | 0.124 µM | 0.0946 µM | 0.0569 µM | 0.65 µM |
| C[N+](C)=c1ccc2nc3c(cc(NCCCNc4cc5oc6cc(=[N+](C)C)ccc-6nc5c5ccccc45)c4ccccc43)oc-2c1 | 6.33 µM | 4.06 µM | 2.08 µM | 10.9 µM | 5.64 µM | 42.3 µM | > 24.2 µM | 6.88 µM | 1.9 µM | 1.89 µM | 0.715 µM | 1.2 µM | 18.7 µM | 3.12 µM | 2.3 µM | 2.85 µM |
